SMILES strings stand for the structures.

In the assay the target is human APJ receptor (Homo sapiens (Human), UniProt P35414). Kind of assay: Intracellular cAMP accumulation assay (APJ hcAMP, HTRF). The conditions noted are these: human APJ, cAMP accumulation; read-out: Human APJ cAMP EC50 Potency range. It counts as cell-based. In short, it runs like this: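 HEK293 cells stably expressing human APJ, 5,000 per well, incubated 30 min at rt with compound, […] and 2 μM forskolin. cAMP measured by HTRF against a cAMP standard curve as inhibition of forskolin-driven production. EC50 from variable-slope sigmoidal fit.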
Chain of human APJ receptor (P35414 whole entry): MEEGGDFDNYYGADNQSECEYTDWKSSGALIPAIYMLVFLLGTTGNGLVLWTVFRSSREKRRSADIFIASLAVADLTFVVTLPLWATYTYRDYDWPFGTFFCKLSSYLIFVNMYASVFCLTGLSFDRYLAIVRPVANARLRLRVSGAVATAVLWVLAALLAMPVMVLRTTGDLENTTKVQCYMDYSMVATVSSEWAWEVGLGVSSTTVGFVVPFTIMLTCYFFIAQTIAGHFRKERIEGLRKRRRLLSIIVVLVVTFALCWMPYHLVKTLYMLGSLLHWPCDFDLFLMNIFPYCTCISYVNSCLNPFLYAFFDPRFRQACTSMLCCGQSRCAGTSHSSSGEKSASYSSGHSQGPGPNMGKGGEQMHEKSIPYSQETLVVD
A general note: cAMP levels reflect the balance of adenylyl cyclase and phosphodiesterase activity.
One may read the EC50 as the concentration that produces a half-maximal response. Regarding `CC[C@@H](c1ccccc1)n1c(COC(C)C)nc(=O)c(S(=O)(=O)c2ccc(-c3cccnc3C)cc2)c1O` [Example 313, 6-hydroxy-5-[4-(2-methylpyridin-3-yl)benzenesulfonyl]-1-[(1S)-1-phenylpropyl]-2-[(propan-2-yloxy)methyl]-1,4-dihydropyrimidin-4-one], the EC50 lay in the range of 0.01 to 10 nM.

Take `CC[C@@H](c1ccccc1)n1c(COC(C)C)nc(=O)c(S(=O)(=O)c2ccc(-c3ccncc3C)cc2)c1O` [Example 314, 6-hydroxy-5-[4-(3-methylpyridin-4-yl)benzenesulfonyl]-1-[(1S)-1-phenylpropyl]-2-[(propan-2-yloxy)methyl]-1,4-dihydropyrimidin-4-one]: the EC50 is 0.01 to 10 nM.

For the compound `CCOCc1nc(=O)c(S(=O)(=O)c2ccc(-c3ccncc3C)cc2)c(O)n1[C@@H](COC)c1ccccc1` [Example 315, 2-(ethoxymethyl)-6-hydroxy-1-[(1R)-2-methoxy-1-phenylethyl]-5-[4-(3-methylpyridin-4-yl)benzenesulfonyl]-1,4-dihydropyrimidin-4-one], the EC50 is 0.01 to 10 nM.

Take `CCOCc1nc(=O)c(S(=O)(=O)c2ccc(-c3ccnc(F)c3C)cc2)c(O)n1[C@@H](COC)c1ccccc1` [Example 316, 2-(ethoxymethyl)-5-[4-(2-fluoro-3-methylpyridin-4-yl)benzenesulfonyl]-6-hydroxy-1-[(1R)-2-methoxy-1-phenylethyl]-1,4-dihydropyrimidin-4-one]: the EC50 was 0.01 to 10 nM.

In the case of `CCOCc1nc(=O)c(S(=O)(=O)c2ccc(-c3ccc(F)nc3)cc2)c(O)n1[C@@H](COC)c1ccccc1` [Example 317, 2-(ethoxymethyl)-5-[4 (6-fluoropyridin-3-yl)benzenesulfonyl]-6-hydroxy-1-[(1R)-2-methoxy-1-phenylethyl]-1,4-dihydropyrimidin-4-one], the EC50 is 10 to 100 nM.

Take `CCOCc1nc(=O)c(S(=O)(=O)c2ccc(-c3ccc(F)nc3C)cc2)c(O)n1[C@@H](COC)c1ccccc1` [Example 318, 2-(ethoxymethyl)-5-[4-(6-fluoro-2-methylpyridin-3-yl)benzenesulfonyl]-6-hydroxy-1-[(1R)-2-methoxy-1-phenylethyl]-1,4-dihydropyrimidin-4-one]: the EC50 lay in the range of 0.01 to 10 nM.

As for `CCOCc1nc(=O)c(S(=O)(=O)c2ccc(-c3cccnc3C)cc2)c(O)n1[C@H]1CCc2ccccc21` [Example 319, 1-[(1S)-2,3-dihydro-1H-inden-1-yl]-2-(ethoxymethyl)-6-hydroxy-5-[4-(2-methylpyridin-3-yl)benzenesulfonyl]-1,4-dihydropyrimidin-4-one], the EC50 fell in the range of 0.01 to 10 nM.

As to `Cc1nc(F)ccc1-c1ccc(S(=O)(=O)c2c(O)n([C@H]3CCc4ccccc43)c(COC(C)C)nc2=O)cc1` [Example 320, 1-[(1S)-2,3-dihydro-1H-inden-1-yl]-5-[4-(6-fluoro-2-methylpyridin-3-yl)benzenesulfonyl]-6-hydroxy-2-[(propan-2-yloxy)methyl]-1,4-dihydropyrimidin-4-one], the EC50 lay within 0.01 to 10 nM.

For `COC[C@@H](c1ccccc1)n1c(COC(C)C)nc(=O)c(S(=O)(=O)c2ccc(-c3ccc(F)nc3C)cc2)c1O` [Example 321, 5-[4-(6-fluoro-2-methylpyridin-3-yl)benzenesulfonyl]-6-hydroxy-1-[(1R)-2-methoxy-1-phenylethyl]-2-[(propan-2-yloxy)methyl]-1,4-dihydropyrimidin-4-one], the EC50 fell in the range of 0.01 to 10 nM.

As for `CCOCc1nc(=O)c(S(=O)(=O)c2ccc(-c3cncc(F)c3)cc2)c(O)n1[C@H]1CCc2ccccc21` [Example 322, 1-[(1S)-2,3-dihydro-1H-inden-1-yl]-2-(ethoxymethyl)-5-[4-(5-fluoropyridin-3-yl)benzenesulfonyl]-6-hydroxy-1,4-dihydropyrimidin-4-one], the EC50 is 0.01 to 10 nM.

As for `CCOCc1nc(=O)c(S(=O)(=O)c2ccc(-c3ccncc3C)cc2)c(O)n1[C@H]1CCc2ccccc21` [Example 323, 1-[(1S)-2,3-dihydro-1H-inden-1-yl]-2-(ethoxymethyl)-6-hydroxy-5-[4-(3-methylpyridin-4-yl)benzenesulfonyl]-1,4-dihydropyrimidin-4-one], the EC50 lay within 0.01 to 10 nM.

Consider `CCOCc1nc(=O)c(S(=O)(=O)c2ccc(-c3ccnc(F)c3C)cc2)c(O)n1[C@H]1CCc2ccccc21` [Example 324, 1-[(1S)-2,3-dihydro-1H-inden-1-yl]-2-(ethoxymethyl)-5-[4-(2-fluoro-3-methylpyridin-4-yl)benzenesulfonyl]-6-hydroxy-1,4-dihydropyrimidin-4-one], for which the EC50 fell in the range of 0.01 to 10 nM.

As to `CCOCc1nc(=O)c(S(=O)(=O)c2ccc(-c3ccc(F)nc3)cc2)c(O)n1[C@H]1CCc2ccccc21` [Example 325, 1-[(1S)-2,3-dihydro-1H-inden-1-yl]-2-(ethoxymethyl)-5-[4-(6-fluoropyridin-3-yl)benzenesulfonyl]-6-hydroxy-1,4-dihydropyrimidin-4-one], the EC50 lay within 0.01 to 10 nM.

For `CCOCc1nc(=O)c(S(=O)(=O)c2ccc(-c3ccc(F)nc3C)cc2)c(O)n1[C@H]1CCc2ccccc21` [Example 326, 1-[(1S)-2,3-dihydro-1H-inden-1-yl]-2-(ethoxymethyl)-5-[4-(6-fluoro-2-methylpyridin-3-yl)benzenesulfonyl]-6-hydroxy-1,4-dihydropyrimidin-4-one], the EC50 lay in the range of 0.01 to 10 nM.

For `COC[C@@H](c1ccccc1)n1c(COC(C)C)nc(=O)c(S(=O)(=O)c2ccc(-c3ccnc(F)c3C)cc2)c1O` [Example 327, 5-[4-(2-fluoro-3-methylpyridin-4-yl)benzenesulfonyl]-6-hydroxy-1-[(1R)-2-methoxy-1-phenylethyl]-2-[(propan-2-yloxy)methyl]-1,4-dihydropyrimidin-4-one], the EC50 was in the range of 0.01 to 10 nM.

For `COC[C@@H](c1ccccc1)n1c(COC(C)C)nc(=O)c(S(=O)(=O)c2ccc(-c3cccnc3C)cc2)c1O` [Example 328], the EC50 lay within 0.01 to 10 nM.

Turning to `COC[C@@H](c1ccccc1)n1c(COC(C)C)nc(=O)c(S(=O)(=O)c2ccc(-c3ccncc3C)cc2)c1O` [Example 329, 6-hydroxy-1-[(1R)-2-methoxy-1-phenylethyl]-5-[4-(3-methylpyridin-4-yl)benzenesulfonyl]-2-[(propan-2-yloxy)methyl]-1,4-dihydropyrimidin-4-one], the EC50 lay in the range of 0.01 to 10 nM.

On to `Cc1ncccc1-c1ccc(S(=O)(=O)c2c(O)n([C@H]3CCc4ccccc43)c(COC(C)C)nc2=O)cc1` [Example 330, 1-[(1S)-2,3-dihydro-1H-inden-1-yl]-6-hydroxy-5-[4-(2-methylpyridin-3-yl)benzenesulfonyl]-2-[(propan-2-yloxy)methyl]-1,4-dihydropyrimidin-4-one], for which the EC50 was in the range of 0.01 to 10 nM.

Regarding `Cc1c(-c2ccc(S(=O)(=O)c3c(O)n([C@H]4CCc5ccccc54)c(COC(C)C)nc3=O)cc2)ccnc1F` [Example 331, 1-[(1S)-2,3-dihydro-1H-inden-1-yl]-5-[4-(2-fluoro-3-methylpyridin-4-yl)benzenesulfonyl]-6-hydroxy-2-[(propan-2-yloxy)methyl]-1,4-dihydropyrimidin-4-one], the EC50 lay within 0.01 to 10 nM.

`Cc1cnccc1-c1ccc(S(=O)(=O)c2c(O)n([C@H]3CCc4ccccc43)c(COC(C)C)nc2=O)cc1` [Example 332, 1-[(1S)-2,3-dihydro-1H-inden-1-yl]-6-hydroxy-5-[4-(3-methylpyridin-4-yl)benzenesulfonyl]-2-[(propan-2-yloxy)methyl]-1,4-dihydropyrimidin-4-one]: the EC50 lay in the range of 0.01 to 10 nM.
